The text below walks through data of patent US20050244360A1, “Cosmetic composition for greasy skin care, containing a carboxylic fatty acid or a derivative thereof” (L'OREAL, priority 2003, published 2005).

Series [1] deals with sebocytes from an immortalized human line. Nature of the series: Reduction of lipogenesis: lipids produced by immortalized human sebocytes, RED NILE dye fluorescence. The class given is cell-based. As to conditions: for QUANTITY OF LIPIDS MEASURED / REDUCTION IN LIPOGENESIS/CONTROL: 2 days of treatment; for QUANTITY OF LIPIDS MEASURED: control = 100; for REDUCTION IN LIPOGENESIS/CONTROL: vs culture medium control. As to the method: The test which was developed consisted of measuring, after 2 days of treatment, the quantity of lipids produced by sebocytes from an immortalized human line (in the presence or absence of active agents). The fluorescence emitted by RED NILE dye was measured at two distinct wavelengths to quantify the amount of characteristic neutral lipids of the sebum. Glucocorticoids are known to reduce the production of sebum in non […] subjects (Leveque, J. L. et al., (1991)). Thus, cortisol was selected as a reference, while the culture medium alone was selected as the control (no supplemental excipient was added either to the cortisol or to the azelaic acid, these latter being dissolved in the culture medium under the test conditions). […] Its activity was moderate compared with the pharmaceutical reference. Nevertheless, it should have a significant cosmetic action in a suitable formulation, if necessary by making repeated applications.

The subject of series [2] is excreted sebum. The note with it: doses used to treat acne (SKINOREN); subjects with acne, seborrheic skin without acne, normoseborrheic; cited from earlier work.
Series [3] relates to human keratinocytes. As to conditions: concentrations of the order of 1 mM; cited from earlier work.
The subject of series [4] is sebum excretion. The note with it: topical 20% azelaic acid gel, individuals with physiological acne; cited from earlier work.
For series [5], the system named is cutaneous micrococcaceae. As to conditions: topical gel containing 20% azelaic acid, male subjects with clinical acne; cited from earlier work.
Series [6] has as its system sebum production. The note with it: cited from earlier work.
Series [7] deals with Propionibacterium sp. As to conditions: topical gel containing 20% azelaic acid, male subjects with clinical acne; cited from earlier work.
The test system of series [8] is SZ 95 sebocytes. The experiment in a line: Tolerability: cytotoxicity by production of LDH in the culture medium. The class given is cell-based, human. As to conditions: 1 μM. How it is done: The tolerability of azelaic acid was measured by measuring the cytotoxicty of the product using SZ 95 sebocytes (Zouboulis, Seltmann et al., 1999). The test conditions were the same as those given in Example 1. The cytotoxicity was measured by the production of LDH in the culture medium.

As for `O=C(O)CCCCCCCC(=O)O` [Azelaic acid, azelaic acid], in series [1] (1 μM), the “effect on sebum production by sebocytes (in words)” value is listed as “inhibits sebum production”, the “QUANTITY OF LIPIDS MEASURED” value turned out to be 93 and the “REDUCTION IN LIPOGENESIS/CONTROL” value is −7%. In addition, the “reduction in lipid secretion” value in series [1] (1 μM, model immortalized culture of human sebocytes) came to 7%. In addition, in series [1] (azelaic acid 1 μM vs cortisol 0.1 μM), the “activity compared with the pharmaceutical reference (cortisol)” value is on record as “moderate”. Besides, in series [2], the “effect on quantity and composition of the excreted sebum (in words)” value was “did not modify either the quantity or the composition of the excreted sebum”. Moreover, in series [3], the “effect on proliferation of human keratinocytes (in words)” value is listed as “reduces the proliferation of human keratinocytes”. Further, the “effect on sebum excretion (in words)” value in series [4] is recorded as “did not cause a significant modification in sebum excretion”. Also, in series [5], the “reduction of the number of cutaneous micrococcaceae, factor” value was 224. Further, the “ability to reduce sebum production (in words)” value in series [6] is on record as “inability of azelaic acid to reduce sebum production”. Besides, the “reduction of the number of Propionibacterium sp, factor” value in series [7] is on record as 30. The “sebocyte survival (in words)” value in series [8] is on record as “improves sebocyte survival”. Besides, in series [8] (same conditions as Example 1), the “LDH VARIATION/CONTROL” value was −20%.
Regarding `C[C@]12CCC(=O)C=C1CC[C@@H]1[C@@H]2[C@@H](O)C[C@@]2(C)[C@H]1CC[C@]2(O)C(=O)CO` [Cortisol], in series [1] (0.1 μM), the “QUANTITY OF LIPIDS MEASURED” value is 71 and the “REDUCTION IN LIPOGENESIS/CONTROL” value is on record as −29%.
